Data reported in PubChem BioAssay (NCI).
Where “and” joins values, the source holds several entries; their conditions need not be identical. Equal values may be shown once.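 Compound exposure: 48 hours, 5 concentrations, 96-well plates. Abbreviation: GI50, concentration required for 50% inhibition of growth. The concentration for full growth arrest is given as TGI.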

Key:
Test in all cases: inhibition of tumour cell growth, NCI panel, 48 h
OVCAR-5 ovarian = tested on: OVCAR-5 ovarian
HOP-62 NSCLC = tested on: HOP-62 NSCLC
NCI-H522 lung = tested on: NCI-H522 lung
HT29 colon = tested on: HT29 colon
UACC-62 melanoma = tested on: UACC-62 melanoma
SF-268 CNS = tested on: SF-268 CNS
NCI-H23 lung = tested on: NCI-H23 lung
OVCAR-4 ovarian = tested on: OVCAR-4 ovarian
M14 melanoma = tested on: M14 melanoma
SW-620 colon = tested on: SW-620 colon

Structure (SMILES) | GI50 (OVCAR-5 ovarian) | TGI (OVCAR-5 ovarian) | GI50 (HOP-62 NSCLC) | TGI (HOP-62 NSCLC) | GI50 (NCI-H522 lung) | TGI (NCI-H522 lung) | GI50 (HT29 colon) | TGI (HT29 colon) | GI50 (UACC-62 melanoma) | TGI (UACC-62 melanoma) | GI50 (SF-268 CNS) | TGI (SF-268 CNS) | GI50 (NCI-H23 lung) | TGI (NCI-H23 lung) | GI50 (OVCAR-4 ovarian) | TGI (OVCAR-4 ovarian) | GI50 (M14 melanoma) | TGI (M14 melanoma) | GI50 (SW-620 colon) | TGI (SW-620 colon)
O=C(Cc1ccc(F)c(Cl)c1)Nc1cc(C2(C(F)(F)F)CC2)nn1CC1CCCCC1 | 4.44 µM | > 15 µM | 3.96 µM | > 15 µM | 2.93 µM | 9.67 µM | 3.96 µM | > 15 µM | 3.37 µM | 11.5 µM | 3.95 µM | > 15 µM | 3.52 µM | 12 µM | 3.27 µM | > 15 µM | 4.3 µM | > 15 µM | 3.92 µM | 14.4 µM
O=C(/C(=C/c1ccc(Cl)cc1)c1ccccc1)c1ccccc1 |  | 42.3 µM |  | 57.5 µM |  | 34.7 µM |  | 38.4 µM |  | 29.4 µM |  | 41.8 µM |  | 40.5 µM |  | 66.9 µM |  | 31.4 µM |  | 31.6 µM
CN1C(=O)c2ccccc2NC(=O)C12O[C@@H]2c1ccccc1 (stereo not given in full) |  | > 100 µM |  | > 100 µM |  | > 100 µM |  | > 100 µM |  | > 100 µM |  | > 100 µM |  | > 100 µM |  | > 100 µM |  | > 100 µM |  | > 100 µM
COc1ccc(-c2ccc(=O)oc2C#Cc2cc(OC)c(OC)c(OC)c2)cc1O | 2.49 µM | 33.9 µM | 1.65 µM | > 100 µM | 0.172 µM | 0.852 µM | 1.25 µM | 12.3 µM | 0.35 µM | > 100 µM | 0.558 µM | > 100 µM | 1.17 µM | > 100 µM | 1.3 µM | > 100 µM | 0.521 µM | > 100 µM | 0.15 µM | > 100 µM
CC(NCCC(c1ccccc1)c1ccccc1)c1ccccc1 (stereo not given) | 2.88 µM | 11.4 µM | 1.36 µM | 3.31 µM | 1.81 µM | 3.48 µM | 1.72 µM | 3.39 µM | 1.62 µM | 3.57 µM | 4.48 µM | 17.5 µM | 2.03 µM | 7.81 µM | 2.15 µM | 6.66 µM | 1.73 µM | 3.31 µM | 1.71 µM | 3.42 µM
Cc1c(N(C)C)ccc2c(=O)c3cccc(CC(=O)O)c3oc12 |  | > 100 µM |  | > 100 µM |  | > 100 µM |  | > 100 µM |  | > 100 µM |  | > 100 µM |  | > 100 µM |  | > 100 µM |  | > 100 µM |  | > 53.5 µM
O=C(c1ccco1)c1c(C(F)(F)F)nc2ccc(Cl)cc2[n+]1[O-] | > 100 µM | > 100 µM | > 100 µM | > 100 µM | 83.1 µM | > 100 µM | > 100 µM | > 100 µM | > 100 µM | > 100 µM | > 100 µM | > 100 µM | 69.5 µM | > 100 µM | > 100 µM | > 100 µM | > 100 µM | > 100 µM | 13.4 µM | 29.6 µM
CCOC(=O)Nc1cc2c(c(N)n1)N=C(c1ccccc1)CO2 | 1.15 µM | 48.5 µM | 0.45 µM | 24.3 µM | 0.268 µM | 13 µM | 0.047 µM | 10.9 µM | 0.359 µM | 31.3 µM | 0.325 µM | 15.8 µM | 0.569 µM | 21.4 µM | 2.46 µM | 36.4 µM | 0.166 µM | 93 µM | 0.0496 µM | 98.2 µM
Cc1nc(N)sc1N=Nc1ccccc1Br |  | > 90.5 µM |  | 78.4 µM |  | 30.3 µM |  | 59 µM |  | 45.4 µM |  | 40.4 µM |  | 56.3 µM |  | > 61.9 µM |  | 67.6 µM |  | > 100 µM
O=C(NC[C@H](O)CN1CCc2ccccc2C1)c1cc(NC2COC2)ncn1 | 36.8 µM | > 100 µM | 37.7 µM | > 100 µM | 23 µM | 68.3 µM | 20.8 µM | > 100 µM | 21.3 µM | > 100 µM | 14.9 µM | 97.5 µM | 19.3 µM | > 100 µM | 16 µM | > 100 µM | 23 µM | > 100 µM | 11 µM | 61.7 µM
COc1cc(C(=O)N2CCN(C(=O)c3cc(OC)c(OC)c(OC)c3)C2=S)cc(OC)c1OC | 23.2 µM | 57.7 µM | 15.2 µM | 38.9 µM | 3.67 µM | 16.3 µM | 22.7 µM | 53.2 µM | 14.9 µM | 29.9 µM | 11.5 µM | 26.1 µM | 18.7 µM | 37.5 µM | 16.9 µM | 50.1 µM | 16.8 µM | 34 µM | 20.3 µM | 46.5 µM
O=C(Nc1cc(C(F)(F)F)cc(C(F)(F)F)c1)c1cc(Cl)ccc1O | 0.305 µM and 0.357 µM | > 5.03 µM and 15.9 µM | 0.26 µM and 0.355 µM | 1.2 µM and 4.38 µM | 0.186 µM and 0.214 µM | 0.818 µM and 1.9 µM | 0.339 µM and 0.401 µM | > 10 µM and 12 µM | 0.129 µM and 0.1 µM | 0.668 µM and 0.595 µM | 0.21 µM | 2.1 µM and 2.82 µM | 0.218 µM and 0.263 µM | 0.754 µM and 1.34 µM | 0.294 µM and 0.288 µM | > 10 µM and 13.4 µM | 0.291 µM and 0.273 µM | 1.25 µM and 1.54 µM | 0.316 µM and 0.312 µM | 3.26 µM and 10.4 µM
NC(N)=NCCCC(=O)O |  | > 100 µM |  | > 100 µM |  | > 100 µM |  | > 100 µM |  | > 100 µM |  | > 100 µM |  | > 100 µM |  | > 100 µM |  | > 100 µM |  | > 100 µM
CN(C)C1CCN(C(=O)c2ccc(NC(=O)Nc3ccc(-c4nc(N5CCOCC5)c5cccn5n4)cc3)cc2)CC1 | 0.0521 µM | 16.1 µM | 0.0573 µM | 2.82 µM | 0.0377 µM | 19.1 µM | 0.0558 µM | 3.78 µM | 0.0444 µM | 0.287 µM | 0.0453 µM | 13.9 µM | 0.102 µM | 17.7 µM | 0.0137 µM | 0.0721 µM | 0.281 µM | 9.15 µM | 0.128 µM | 11.8 µM
